For series [1] the following is noted: in man, cited from earlier work.
The subject of series [2] is HCT116, A549 and NCIH460 murine xenografts. The note with it: cited from earlier work.
Series [3] has as its target T1, Plk1-Flag-His6 tag fusion enzyme (Human Plk1) (Homo sapiens, UniProt P53350).
T1 construct: made in house; host or cells: Sf9 cells (baculovirus, pFastBac vector)
Kind of series: Plk1 Inhibition Assay. The series is classed as biochemical. The conditions noted are these: 5.0 μM ATP, GST-Cdc25c (1-206) substrate, 60 min room temperature; MSR 3.6; read-out: Plk1 IC50 (absolute IC50). From the text:
Human Plk1 cDNA, which may be obtained from a number of sources, such as Incyte (accession number: NM_005030), may be directly linked at one of its termini with a polynucleotide sequence expressing a His6 tag, such as the C-terminal FLAG-His6 tag, and inserted into an appropriate expression vector, such as a pFastBac™ vector (Invitrogen) and transfected into an appropriate system, such as baculovirus similar to what has been reported by Yue-Wei Qian, et al., Science 282, 1701 (1998) for xPlkk1. If a viral expression system is used, then the virus (e.g., baculovirus bearing a Plk1-Flag-His6 tag polynucleotide construct) is infected into a culture of a suitable host cell, such as Sf9 cells. […]
Plk1 kinase reactions contain Plk1-Flag-His6 tag fusion enzyme (0.2 ng/μL) in a buffer containing 50 mM HEPES, pH 7.3, 1.0 mM dithiothreitol, 5.0 μM ATP, 10 mM MgCl2, 0.01% TRITON® X-100, 0.4 μCi ^33P-ATP, and 0.06 μg/μL GST-Cdc25c (1-206) peptide. […] Wells are dried before addition of 40 μL of MicroScint™20 (Packard) and then counted on a Wallac MICROBETA® Jet. The percentage inhibition values from the 10-point concentration response data are subsequently analyzed, for example, using ACTIVITY BASE™ software (IDBS), using a 4-parameter logistic equation. Absolute IC50 values are calculated from the resulting curve fit.

Series [4] relates to HeLa Cells. Kind of series: pHH3(S10), Mitotic Cells, and DNA Content Assays. The note with it: Homo sapiens, 23 hours exposure. It counts as cell-based. The protocol: HeLa Cells from the American Type Culture Collection (ATCC) are plated at 200 cells/well in 96 well […] BIOCOAT™ plates, and are incubated in MEM (Minimum Essential Medium, e.g., GIBCO, catalog #11095) with 10% FBS (Fetal Bovine Serum) in 37° C., 5% CO2 for 24 hours. Cells are treated by adding compound (in 0.25% DMSO) to the medium, dosing at 10 points across the range 0.5 μM to 0.0098 μM. After 23 hours exposure to the compounds, cells are fixed, for example with the PREFER™ fixative [Anatech LTD., Catalog #414] for 30 min then are permeabilized with 0.1% TRITON® X100 in phosphate buffered saline (PBS) solution for 15 min. Cells are washed 3 times with PBS then digested with 50 μg/mL RNAse. Primary antibody, phosphohistone H3 (Upstate Cat#06-570), is added at 1:500 in PBS with 1% bovine serum albumin (BSA) to the cells over night at 4° C. After 3 PBS washes, cells are incubated with Alexa488 labeled secondary antibody (Invitrogen cat #A11008) for 1 hour at room temperature. Again they are washed 3 times with PBS, and then 15 μM propidium iodide (Molecular Probes cat #P3566) is added for 30 min to stain nuclei. Fluorescence Plates are scanned with ACUMEN EXPLORER™ [Laser-scanning fluorescence microplate cytometer (comprising of 488 nm argon ion laser excitation and multiple photomultiplier tube detection), manufactured by TTP LABTECH LTD] to measure phosphohistone H3, DNA content and mitotic cells as measured by DNA condensation. Image analyses are based on cellular fluorescent signals for identifying cells in different subpopulations. pHH3(S10) positive cells are identified by mean intensity at 500-530 nm above the threshold. Total intensity at 655-705 nm from propidium iodide/DNA is used to identify individual cells (cells with DNA content from 2N to 4N) and subpopulations in cell cycle (2N cells, 4N cells). Peak intensity at 575-640 nm is used to identify DNA condensation that is used as the marker to identify mitotic cells among 4N cells. […] The EC50 is determined by curve fitting to a four parameter logistic for each output using ACTIVITY BASE™. […]

In series [5] the test system is HCT116 cells. Description: Antiproliferative Assay. The series is classed as cell-based. The conditions noted are these: Homo sapiens, HCT-116, e.g. 72 hours exposure, Alamar Blue, n=3, MSR 3.1. As for the experimental part:
The effects of compounds on cell proliferation can be determined using cells and cell proliferation methods well-known in the art (Robert C. Squatrito et al., Gynecological Oncology, 58, 101-105, (1995)). For example, HCT116 cells, which may be obtained from the American Type Culture Collection, may be seeded at 2000 cells/well in 96-well plates and allowed to attach overnight in a humidified CO2 incubator at 37° C. Following the 20-24 hour incubation, half-log serially diluted compounds are added and the plates are returned to the incubator. After an appropriate length of exposure (e.g., 72 hours), cell proliferation is estimated using well-known methods. In one method, 10 μL of a tetrazolium salt, such as Alamar Blue™ is added to the cell plates. After an appropriate exposure to the dye, fluorescence (530 nm excitation, 580 nm emission) is determined. The resulting IC50 has an MSR of 3.1.

The structures appear in SMILES notation. Read-outs that look alike come from different tables or passages of the source. Bounds are passed on as bounds.

Broadly, the IC50 is the point on the concentration scale where inhibition reaches its midpoint. By EC50 is commonly meant the concentration giving half of the maximal effect.

T1 sequence (P53350 whole entry, the tested form may be a part): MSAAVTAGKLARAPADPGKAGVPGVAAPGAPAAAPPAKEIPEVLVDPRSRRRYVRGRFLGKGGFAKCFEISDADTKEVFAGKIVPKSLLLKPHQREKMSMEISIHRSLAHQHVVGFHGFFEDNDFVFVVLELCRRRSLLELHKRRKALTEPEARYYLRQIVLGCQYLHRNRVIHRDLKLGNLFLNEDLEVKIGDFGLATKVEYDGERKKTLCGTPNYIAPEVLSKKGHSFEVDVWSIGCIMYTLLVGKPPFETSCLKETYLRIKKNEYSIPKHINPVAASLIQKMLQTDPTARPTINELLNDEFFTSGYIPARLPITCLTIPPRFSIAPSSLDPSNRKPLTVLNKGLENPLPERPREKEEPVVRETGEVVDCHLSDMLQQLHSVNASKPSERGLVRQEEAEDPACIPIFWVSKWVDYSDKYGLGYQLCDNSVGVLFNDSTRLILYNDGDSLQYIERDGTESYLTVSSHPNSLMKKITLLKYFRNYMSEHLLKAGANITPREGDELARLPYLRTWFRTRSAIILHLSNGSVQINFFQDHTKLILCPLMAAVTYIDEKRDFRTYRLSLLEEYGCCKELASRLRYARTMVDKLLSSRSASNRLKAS

With `CC[C@@H]1C(=O)N(C)c2cnc(Nc3ccc(C(=O)NC4CCN(C)CC4)cc3OC)nc2N1C1CCCC1` [BI-2536], the “clearance (CL)” value in series [1] (phase II clinical trials) is reported as over 1000 mL/min. In addition, in series [1], the dose-limiting toxicity result was “dose limited by myelosupression”. The “activity in preclinical xenograft models” value in series [2] was “demonstrated activity”.

Consider `O=C1NCCN1CCNc1ncc(Cl)c(-c2cc3cccc(-c4cc(F)ncc4Cl)c3s2)n1` [Example 13, 1-(2-{5-Chloro-4-[7-(5-chloro-2-fluoropyridin-4-yl)-benzo[b]thiophen-2-yl]pyrimidin-2-ylamino}ethyl)imidazolidin-2-one], for which the IC50 was about 23 nM in series [3] and 11 nM in series [5]. The EC50 came out at 45 nM in series [4] (n=1, MSR 2.5, read-out: mitotic EC50); 40 nM in series [4] (n=2, MSR 2.4, read-out: DNA content EC50); 42 nM in series [4] (n=2, MSR 2.6, read-out: pHH3(s10) EC50).

(Values after US8101628B2, “Imidazolidinonyl aminopyrimidine compounds for the treatment of cancer” (Eli Lilly and Company, priority 2007, dated 2012).)
